According to patent US10167262B2, “Herbicidal substituted 3-arylpyrazoles” (FMC CORPORATION, priority 2014, dated 2019):

What was measured:
Type in all cases: in vivo
[1] = test system: barnyardgrass (Echinochloa crus-galli); test: Test A pre-/postemergence greenhouse herbicide test, visual injury rating 0-100; conditions: 1000 g ai/ha
Outline: (§1)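 Ratings are visual, 0 to 100 relative to untreated plants, taken approximately 10 days post-treatment in the greenhouse. Both preemergence soil and postemergence foliar routes were used with surfactant-containing non-phytotoxic solvent formulations.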

corn (Zea mays) = test: as above; conditions: 1000 g ai/ha
Outline: as §1

[2] = test system: giant foxtail (Setaria faberii); test: as above; conditions: 1000 g ai/ha
Outline: as §1

[3] = test system: large (Lg) crabgrass (Digitaria sanguinalis); test: as above; conditions: 1000 g ai/ha
Outline: as §1

[4] = test system: morningglory (Ipomoea spp.); test: as above; conditions: 1000 g ai/ha
Outline: as §1

[5] = test system: pigweed (Amaranthus retroflexus); test: as above; conditions: 1000 g ai/ha
Outline: as §1

[6] = test system: velvetleaf (Abutilon theophrasti); test: as above; conditions: 1000 g ai/ha
Outline: as §1

[7] = test system: wheat (Triticum aestivum); test: as above; conditions: 1000 g ai/ha
Outline: as §1

[8] = test system: blackgrass (Alopecurus myosuroides); test: Test C pre-/postemergence greenhouse test, plant response rating 0-100; conditions: Postemergence; for Plant response rating, Blackgrass: scale 0 to 100
Outline: (§2)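 Scores run from 0, no effect, to 100, complete control, assigned by eye after treated plants and controls spent 13 to 15 days in a greenhouse. Soil-applied treatment went onto freshly sown seed in loam and sand; foliar treatment hit seedlings at the 1- to 4-leaf stage.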

[9] = test system: ragweed (common ragweed, Ambrosia elatior); test: as above; conditions: Postemergence; for Plant response rating, Ragweed: scale 0 to 100
Outline: as §2

[10] = test system: chickweed (common chickweed, Stellaria media); test: Test C postemergence greenhouse test, plant response rating 0-100; conditions: for Plant response rating, Chickweed: scale 0 to 100
Outline: (§3)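 Postemergence spray onto 1–4-leaf potted seedlings, greenhouse incubation 13–15 days. Visual percent-control rating (0–100) against untreated plants.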

kochia (Kochia scoparia) = test: as above; conditions: for Plant response rating, Kochia: scale 0 to 100
Outline: as §3

wild oat (Avena fatua) = test: as above; conditions: for Plant response rating, Oat, Wild: scale 0 to 100
Outline: as §3

Structure (SMILES): Cn1cc(C(=O)c2ccccc2)c(-c2cc(Br)cc(Br)c2)n1 [Compound 53]
- Plant response rating (0 to 100 scale), Barnyardgrass ([1]; Postemergence): 0
- Plant response rating (0 to 100 scale), Barnyardgrass ([1]; Preemergence): 0
- Plant response rating (0 to 100 scale), Corn (corn (Zea mays); Postemergence): 0
- Plant response rating (0 to 100 scale), Corn (corn (Zea mays); Preemergence): 0
- Plant response rating (0 to 100 scale), Foxtail, Giant ([2]; Postemergence): 0
- Plant response rating (0 to 100 scale), Foxtail, Giant ([2]; Preemergence): 0
- Plant response rating (0 to 100 scale), Crabgrass, Large ([3]; Postemergence): 0
- Plant response rating (0 to 100 scale), Crabgrass, Large ([3]; Preemergence): 0
- Plant response rating (0 to 100 scale), Morningglory ([4]; Postemergence): 0
- Plant response rating (0 to 100 scale), Morningglory ([4]; Preemergence): 0
- Plant response rating (0 to 100 scale), Pigweed ([5]; Postemergence): 100
- Plant response rating (0 to 100 scale), Pigweed ([5]; Preemergence): 90
- Plant response rating (0 to 100 scale), Velvetleaf ([6]; Postemergence): 90
- Plant response rating (0 to 100 scale), Velvetleaf ([6]; Preemergence): 60
- Plant response rating (0 to 100 scale), Wheat ([7]; Postemergence): 0
- Plant response rating (0 to 100 scale), Wheat ([7]; Preemergence): 0
- Plant response rating (0 to 100), Blackgrass ([8]; 62 g ai/ha): 0
- Plant response rating (0 to 100), Blackgrass ([8]; 125 g ai/ha): 0
- Plant response rating, Blackgrass ([8]; 250 g ai/ha): 0
- Plant response rating, Blackgrass ([8]; 500 g ai/ha): 0
- Plant response rating (0 to 100), Ragweed ([9]; 62 g ai/ha): 10
- Plant response rating (0 to 100), Ragweed ([9]; 125 g ai/ha): 10
- Plant response rating, Ragweed ([9]; 250 g ai/ha): 10
- Plant response rating, Ragweed ([9]; 500 g ai/ha): 10
- Plant response rating (0 to 100), Chickweed ([10]; 62 g ai/ha): 50
- Plant response rating (0 to 100), Chickweed ([10]; 125 g ai/ha): 50
- Plant response rating, Chickweed ([10]; 250 g ai/ha): 100
- Plant response rating, Chickweed ([10]; 500 g ai/ha): 100
- Plant response rating (0 to 100), Kochia (kochia (Kochia scoparia); 62 g ai/ha): 25
- Plant response rating (0 to 100), Kochia (kochia (Kochia scoparia); 125 g ai/ha): 45
- Plant response rating, Kochia (kochia (Kochia scoparia); 250 g ai/ha): 60
- Plant response rating, Kochia (kochia (Kochia scoparia); 500 g ai/ha): 60
- Plant response rating (0 to 100), Oat, Wild (wild oat (Avena fatua); 62 g ai/ha): 0
- Plant response rating (0 to 100), Oat, Wild (wild oat (Avena fatua); 125 g ai/ha): 0
- Plant response rating, Oat, Wild (wild oat (Avena fatua); 250 g ai/ha): 0
- Plant response rating, Oat, Wild (wild oat (Avena fatua); 500 g ai/ha): 0
